According to US8268859B2, “Glucocorticoid mimetics, methods of making them, pharmaceutical compositions and uses thereof” (Boehringer Ingelheim International GmbH, priority 2008, dated 2012):
Read-outs that look alike come from different tables or passages of the source.

Tests used:
[1] = target: T1, human glucocorticoid receptor (GR) complex (Homo sapiens, UniProt P04150); experiment: Glucocorticoid receptor fluorescence polarization competitive binding assay;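 note: GR complex expressed in an insect system, wells lacking compound give full signal, excess unlabeled dexamethasone defines the blank, IC50 from logistic curve fit of polarization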
T1 construct: made in house; host or cells: insect expression system (baculovirus lysate)
T1 sequence (P04150 1-777): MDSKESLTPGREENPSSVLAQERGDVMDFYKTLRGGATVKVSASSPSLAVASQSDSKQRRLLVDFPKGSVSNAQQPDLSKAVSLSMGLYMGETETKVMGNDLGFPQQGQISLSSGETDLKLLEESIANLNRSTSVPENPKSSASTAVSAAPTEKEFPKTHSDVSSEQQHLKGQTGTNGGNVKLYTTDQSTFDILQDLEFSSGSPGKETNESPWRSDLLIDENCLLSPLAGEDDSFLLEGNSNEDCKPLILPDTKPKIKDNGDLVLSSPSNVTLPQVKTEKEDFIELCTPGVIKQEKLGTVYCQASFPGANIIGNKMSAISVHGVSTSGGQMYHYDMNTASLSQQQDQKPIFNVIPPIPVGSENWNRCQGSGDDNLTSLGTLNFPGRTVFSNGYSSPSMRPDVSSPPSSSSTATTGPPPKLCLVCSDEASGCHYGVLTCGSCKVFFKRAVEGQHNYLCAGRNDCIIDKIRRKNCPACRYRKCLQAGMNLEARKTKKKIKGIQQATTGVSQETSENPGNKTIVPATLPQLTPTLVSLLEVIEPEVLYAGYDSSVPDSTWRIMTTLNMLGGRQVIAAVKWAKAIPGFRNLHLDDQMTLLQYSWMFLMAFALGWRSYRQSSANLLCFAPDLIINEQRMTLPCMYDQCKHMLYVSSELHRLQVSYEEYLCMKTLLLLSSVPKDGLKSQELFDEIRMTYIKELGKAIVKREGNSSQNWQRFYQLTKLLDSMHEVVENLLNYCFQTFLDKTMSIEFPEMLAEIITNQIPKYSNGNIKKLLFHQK

[2] = target: human recombinant CYP3A4 (Homo sapiens, UniProt P08684); experiment: Cytochrome P450 inhibition assay (substrate 7-benzyloxy-4-(trifluoromethyl)coumarin); assay type: in vitro ADME;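 note: compounds preincubated at least 10 min at 37 °C before adding enzyme plus substrate, reaction run 30 min at 37 °C, ketoconazole standard curve on every plate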
[3] = Table 1, competition with TAMRA-labeled dexamethasone, read-out: GR IC50
[4] = Table 2, comparison compounds, read-out: CYP3A4 Inhibition IC50

Chain of human recombinant CYP3A4 (P08684 whole entry): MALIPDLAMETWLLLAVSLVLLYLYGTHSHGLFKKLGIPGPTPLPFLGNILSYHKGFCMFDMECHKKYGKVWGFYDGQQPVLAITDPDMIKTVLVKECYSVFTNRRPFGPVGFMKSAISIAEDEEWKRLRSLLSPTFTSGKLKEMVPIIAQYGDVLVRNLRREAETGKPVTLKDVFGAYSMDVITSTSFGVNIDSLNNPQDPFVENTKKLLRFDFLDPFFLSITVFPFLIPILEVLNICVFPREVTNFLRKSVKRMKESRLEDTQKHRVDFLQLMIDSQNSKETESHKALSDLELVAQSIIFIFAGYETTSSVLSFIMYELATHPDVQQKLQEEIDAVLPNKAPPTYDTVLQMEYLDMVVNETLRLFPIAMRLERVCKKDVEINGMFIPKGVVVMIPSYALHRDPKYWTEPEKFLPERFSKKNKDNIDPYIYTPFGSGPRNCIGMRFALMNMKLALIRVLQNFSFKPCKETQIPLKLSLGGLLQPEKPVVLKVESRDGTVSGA

CCCS(=O)(=O)c1cc2cc(CC(O)(CC(C)(C)c3ccccc3S(C)(=O)=O)C(F)(F)F)[nH]c2cn1 (stereo not drawn) [1,1,1-Trifluoro-4-(2-methanesulfonylphenyl)-4-methyl-2-[5-(propane-1-sulfonyl)-1H-pyrrolo[2,3-c]pyridin-2-ylmethyl]pentan-2-ol]
IC50 [1]: 24 nM | IC50 ([2]; Table 1, read-out: CYP3A4 IC50): 1600 nM

CC(C)S(=O)(=O)c1cc2cc(CC(O)(CC(C)(C)c3ccccc3S(C)(=O)=O)C(F)(F)F)[nH]c2cn1 (stereo not drawn) [1,1,1-Trifluoro-4-(2-methanesulfonylphenyl)-4-methyl-2-[5-(propane-2-sulfonyl)-1H-pyrrolo[2,3-c]pyridin-2-ylmethyl]pentan-2-ol]
IC50 [1, 3]: 97 nM | IC50 ([2]; Table 1, read-out: CYP3A4 IC50): 22000 nM

CC(C)(CC(O)(Cc1cc2nc(S(C)(=O)=O)ccc2[nH]1)C(F)(F)F)c1cccc(F)c1S(C)(=O)=O (stereo not drawn) [1,1,1-Trifluoro-4-(3-fluoro-2-methanesulfonylphenyl)-2-(5-meethanesulfonyl-1H-pyrrolo[3,2-b]pyridin-2-ylmethyl)-4-methylpentan-2-ol]
IC50 [1, 3]: 65 nM | IC50 ([2]; Table 1, read-out: CYP3A4 IC50): 12000 nM

CC(C)(CC(O)(Cc1cc2cc(S(C)(=O)=O)ncc2[nH]1)C(F)(F)F)c1cccc(F)c1S(C)(=O)=O (stereo not drawn) [1,1,1-Trifluoro-4-(3-fluoro-2-methanesulfonylphenyl)-2-(5-methanesulfonyl-1H-pyrrolo[2,3-c]pyridin-2-ylmethyl)-4-methylpentan-2-ol]
IC50 [1, 3]: 62 nM | IC50 ([2]; Table 1, read-out: CYP3A4 IC50): > 30000 nM

CC(C)S(=O)(=O)c1cc2cc(CC(O)(CC(C)(C)c3cccc(F)c3S(C)(=O)=O)C(F)(F)F)[nH]c2cn1 (stereo not drawn) [1,1,1-Trifluoro-4-(3-fluoro-2-methanesulfonylphenyl)-4-methyl-2-[5-(propane-2-sulfonyl)-1H-pyrrolo[2,3-c]pyridin-2-ylmethyl]pentan-2-ol]
IC50 [1, 3]: 210 nM | IC50 ([2]; Table 1, read-out: CYP3A4 IC50): > 30000 nM

CC(C)S(=O)(=O)c1cc2cc(CC(O)(CC(C)(C)c3ccc(F)cc3S(C)(=O)=O)C(F)(F)F)[nH]c2cn1 (stereo not drawn) [1,1,1-Trifluoro-4-(4-fluoro-2-methanesulfonylphenyl)-4-methyl-2-[5-(propane-2-sulfonyl)-1H-pyrrolo[2,3-c]pyridin-2-ylmethyl]pentan-2-ol]
IC50 [1, 3]: 53 nM | IC50 ([2]; Table 1, read-out: CYP3A4 IC50): 19000 nM

CC(C)(CC(O)(Cc1cc2cc(S(C)(=O)=O)ncc2[nH]1)C(F)(F)F)c1cccc2c1S(=O)(=O)C=C2 (stereo not drawn) [4-(1,1-Dioxo-1H-1λ^6-benzo[b]thiophen-7-yl)-1,1,1-trifluoro-2-(5-methanesulfonyl-1H-pyrrolo[2,3-c]pyridin-2-ylmethyl)-4-methylpentan-2-ol]
IC50 [1, 3]: 89 nM | IC50 ([2]; Table 1, read-out: CYP3A4 IC50): 7400 nM

CCS(=O)(=O)c1cc2cc(CC(O)(CC(C)(C)c3cccc4c3S(=O)(=O)C=C4)C(F)(F)F)[nH]c2cn1 (stereo not drawn) [4-(1,1-Dioxo-1H-1λ^6-benzo[b]thiophen-7-yl)-2-(5-ethanesulfonyl-1H-pyrrolo[2,3-c]pyridin-2-ylmethyl)-1,1,1-trifluoro-4-methylpentan-2-ol]
IC50 [1, 3]: 58 nM | IC50 ([2]; Table 1, read-out: CYP3A4 IC50): 4100 nM

CC(C)(CC(O)(Cc1cc2cc(S(C)(=O)=O)ncc2[nH]1)C(F)(F)F)c1ccccc1Br (stereo not drawn) [4-(2-Bromophenyl)-1,1,1-trifluoro-2-(5-methanesulfonyl-1H-pyrrolo[2,3-c]pyridin-2-ylmethyl)-4-methylpentan-2-ol]
IC50 [1, 3]: 7 nM | IC50 ([2]; Table 1, read-out: CYP3A4 IC50): 23000 nM

CC(C)(CC(O)(Cc1cc2nc(S(C)(=O)=O)ccc2[nH]1)C(F)(F)F)c1cc(Cl)ccc1S(C)(=O)=O (stereo not drawn) [4-(5-Chloro-2-methanesulfonylphenyl)-1,1,1-trifluoro-2-(5-methanesulfonyl-1H-pyrrolo[3,2-b]pyridin-2-ylmethyl)-4-methylpentan-2-ol]
IC50 [1]: 8 nM | IC50 ([2]; Table 1, read-out: CYP3A4 IC50): 4100 nM

CCCS(=O)(=O)c1cc2cc(CC(O)(CC(C)(C)c3cc(Cl)ccc3S(C)(=O)=O)C(F)(F)F)[nH]c2cn1 (stereo not drawn) [4-(5-Chloro-2-methanesulfonylphenyl)-1,1,1-trifluoro-4-methyl-2-[5-(propane-1-sulfonyl)-1H-pyrrolo[2,3-c]pyridin-2-ylmethyl]pentan-2-ol]
IC50 [1, 3]: 14 nM | IC50 ([2]; Table 1, read-out: CYP3A4 IC50): 900 nM

CC(C)S(=O)(=O)c1cc2cc(CC(O)(CC(C)(C)c3cc(Cl)ccc3S(C)(=O)=O)C(F)(F)F)[nH]c2cn1 (stereo not drawn) [4-(5-Chloro-2-methanesulfonylphenyl)-1,1,1-trifluoro-4-methyl-2-[5-(propane-2-sulfonyl)-1H-pyrrolo[2,3-c]pyridin-2-ylmethyl]pentan-2-ol]
IC50 [1, 3]: 17 nM | IC50 ([2]; Table 1, read-out: CYP3A4 IC50): 6000 nM

CC(C)(CC(O)(Cc1cc2cc(S(C)(=O)=O)ncc2[nH]1)C(F)(F)F)c1cccc2ccsc12 (stereo not drawn) [4-Benzo[b]thiophen-7-yl-1,1,1-trifluoro-2-(5-methanesulfonyl-1H-pyrrolo[2,3-c]pyridin-2-ylmethyl)-4-methylpentan-2-ol]
IC50 [1]: 10 nM | IC50 ([2]; Table 1, read-out: CYP3A4 IC50): 2700 nM

CC(C)(CC(O)(Cc1cc2cc(S(C)(=O)=O)ncc2[nH]1)C(F)(F)F)c1cc(Br)ccc1O (stereo not drawn) [4-Bromo-2-[4,4,4-trifluoro-3-hydroxy-3-(5-methanesulfonyl-1H-pyrrolo[2,3-c]pyridin-2-ylmethyl)-1,1-dimethylbutyl]phenol]
IC50 [1, 3]: 7 nM | IC50 ([2]; Table 1, read-out: CYP3A4 IC50): 5600 nM

Cc1ccc(C(N)=O)c(C(C)(C)CC(O)(Cc2cc3cc(S(C)(=O)=O)ncc3[nH]2)C(F)(F)F)c1 (stereo not drawn) [4-Methyl-2-[4,4,4-trifluoro-3-hydroxy-3-(5-methanesulfonyl-1H-pyrrolo[2,3-c]pyridin-2-ylmethyl)-1,1-dimethylbutyl]benzamide]
IC50 [1, 3]: 44 nM

CCS(=O)(=O)c1cc2cc(CC(O)(CC(C)(C)c3ccc(Cl)cc3C(N)=O)C(F)(F)F)[nH]c2cn1 (stereo not drawn) [5-Chloro-2-[3-(5-ethanesulfonyl-1H-pyrrolo[2,3-c]pyridin-2-ylmethyl)-4,4,4-trifluoro-3-hydroxy-1,1-dimethylbutyl]benzamide]
IC50 [1, 3]: 44 nM

CC(C)(C[C@@](O)(Cc1cc2nc(S(C)(=O)=O)ncc2[nH]1)C(F)(F)F)c1ccc(F)cc1C(N)=O [5-Fluoro-2-[(R)-4,4,4-trifluoro-3-hydroxy-3-(2-methanesulfonyl-5H-pyrrolo[3,2-d]pyrimidin-6-ylmethyl)-1,1-dimethylbutyl]benzamide]
IC50 [1, 3]: 210 nM | IC50 ([2]; Table 1, read-out: CYP3A4 IC50): 11000 nM

Cc1ccc(C(C)(C)CC(O)(Cc2cc3nc(S(C)(=O)=O)ccc3[nH]2)C(F)(F)F)c(C(N)=O)c1 (stereo not drawn) [5-Methyl-2-[4,4,4-trifluoro-3-hydroxy-3-(5-methanesulfonyl-1H-pyrrolo[3,2-b]pyridin-2-ylmethyl)-1,1-dimethylbutyl]benzamide]
IC50 [1, 3]: 58 nM

Cc1ccc(C(C)(C)CC(O)(Cc2cc3cc(S(=O)(=O)C(C)C)ncc3[nH]2)C(F)(F)F)c(C(N)=O)c1 (stereo not drawn) [5-Methyl-2-{4,4,4-trifluoro-3-hydroxy-1,1-dimethyl-3-[5-(propane-2-sulfonyl)-1H-pyrrolo[2,3-c]pyridin-2-ylmethyl]butyl}benzamide]
IC50 [1, 3]: 250 nM

CC(C)(CC(O)(Cc1cc2ccncc2[nH]1)C(F)(F)F)c1ccccc1S(C)(=O)=O (stereo not drawn) [Compound 2, reference compound]
IC50 [2, 4]: 180 nM

CC(C)(CC(O)(Cc1cc2ccncc2[nH]1)C(F)(F)F)c1ccccc1C(N)=O (stereo not drawn) [Compound 5, reference compound]
IC50 [2, 4]: 510 nM

CC(C)(CC(O)(Cc1cc2ccncc2[nH]1)C(F)(F)F)c1ccccc1 (stereo not drawn) [Compound 7, reference compound]
CYP inhibition (in words) ([2]; Table 2): potent CYP inhibitor | IC50 [2, 4]: 900 nM

CC(C)(C[C@@](O)(Cc1cc2cc(S(C)(=O)=O)ncc2[nH]1)C(F)(F)F)c1ccc(F)cc1S(C)(=O)=O [drawing 10, (R)-1,1,1-Trifluoro-4-(4-fluoro-2-methanesulfonylphenyl)-2-(5-methanesulfonyl-1H-pyrrolo[2,3-c]pyridin-2-ylmethyl)-4-methylpentan-2-ol]
IC50 [1, 3]: 28 nM

CC(C)(C[C@@](O)(Cc1cc2cc(S(C)(=O)=O)ncc2[nH]1)C(F)(F)F)c1ccc(Cl)cc1S(C)(=O)=O [drawing 13, (R)-4-(4-Chloro-2-methanesulfonylphenyl)-1,1,1-trifluoro-2-(5-methanesulfonyl-1H-pyrrolo[2,3-c]pyridin-2-ylmethyl)-4-methylpentan-2-ol]
IC50 [1]: 36 nM

CCS(=O)(=O)c1cc2cc(CC(O)(CC(C)(C)c3ccc(Cl)cc3S(C)(=O)=O)C(F)(F)F)[nH]c2cn1 (stereo not drawn) [drawing 15, 4-(4-Chloro-2-methanesulfonylphenyl)-2-(5-ethanesulfonyl-1H-pyrrolo[2,3-c]pyridin-2-ylmethyl)-1,1,1-trifluoro-4-methylpentan-2-ol]
IC50 [1, 3]: 39 nM

CCS(=O)(=O)c1cc2cc(CC(O)(CC(C)(C)c3ccc(F)cc3S(C)(=O)=O)C(F)(F)F)[nH]c2cn1 (stereo not drawn) [drawing 16, 2-(5-Ethanesulfonyl-1H-pyrrolo[2,3-c]pyridin-2-ylmethyl)-1,1,1-trifluoro-4-(4-fluoro-2-methanesulfonylphenyl)-4-methylpentan-2-ol]
IC50 [1, 3]: 29 nM
